Test systems include Hs-578T; MOLT-4; PC-3; SR; SF-539; IGROV-1; OVCAR-4; ACHN; EKVX; SK-MEL-2; HT-29; HCT-116; NCI-H460; MDA-MB-435; A498; NCI-H23; HCT-15; SF-268; Malme-3M; SN12C.
What all share (test): growth of human tumour cells (NCI), 48 h

Data on eight compounds can be found in ChEMBL document CHEMBL1201862, “PubChem BioAssay data set” (2004).

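Exposure lasted 48 hours, with cells grown in 96-well plates and compounds tested at five concentrations. The concentration for 50% growth inhibition is given as GI50.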 Active and inactive are the calls of the source. No stated cut-off is given here; in the data, active = GI50 up to about 1.1 µM and inactive = higher.

For `O=C(Nc1ccccc1)c1cc2c(cc1Cl)SC(NNCCO)=NS2(=O)=O`, the GI50 with Hs-578T, in the assay on MOLT-4, with PC-3, in the assay with SR, in the assay with SF-539 and in the assay with IGROV-1 was > 100 µM (inactive) throughout. The GI50 in the assay on OVCAR-4, in the assay with ACHN, in the assay with EKVX, in the assay on SK-MEL-2, in the assay with HT-29 and with HCT-116 was > 100 µM (inactive) each time. Besides, the GI50 is > 100 µM (inactive) in the assay with NCI-H460; > 100 µM (inactive) in the assay on MDA-MB-435; > 100 µM (inactive) in the assay with A498; > 100 µM (inactive) in the assay on NCI-H23; above 100 µM in the assay with HCT-15; > 100 µM (inactive) with SF-268.

As to `[O-][n+]1cn[n+]([O-])c2ccccc21`, the GI50 in the assay on Hs-578T is 57.1 µM (inactive); in the assay on MOLT-4, 2.91 µM (inactive); with PC-3, 11.7 µM (inactive); with SR, 18.4 µM (inactive); with SF-539 it was 22.3 µM (inactive); in the assay with IGROV-1, 11.2 µM (inactive). The GI50 in the assay on Malme-3M is 18.6 µM (inactive); in the assay with ACHN it was 12.2 µM (inactive); with EKVX, 33 µM (inactive); with SK-MEL-2 it was 27.4 µM (inactive); with HT-29, 13.6 µM (inactive); with HCT-116 it was 13.3 µM (inactive). Besides, the GI50 in the assay with SN12C was 38.3 µM (inactive); with MDA-MB-435, 67.3 µM (inactive); with A498, 61.4 µM (inactive); in the assay with NCI-H23 it was 65.3 µM (inactive); in the assay with HCT-15, 16.4 µM; in the assay with SF-268, 33.2 µM (inactive).

In the case of `CNC(c1ccncc1)C(NC)c1ccncc1` (centres undefined), the GI50 in the assay with Hs-578T was 90.8 µM (inactive); with MOLT-4, > 100 µM (inactive); in the assay on PC-3, > 100 µM (inactive); in the assay on SR, > 100 µM (inactive); in the assay with IGROV-1, > 100 µM (inactive); in the assay with OVCAR-4 it was > 100 µM (inactive). Further, the GI50 in the assay on Malme-3M, with ACHN, in the assay on EKVX, with SK-MEL-2, in the assay on HT-29 and in the assay on HCT-116 was > 100 µM (inactive) throughout. Besides, the GI50 in the assay on SN12C is > 100 µM (inactive); in the assay on MDA-MB-435 it was > 100 µM (inactive); with A498 it was > 100 µM (inactive); with NCI-H23, > 100 µM (inactive); with HCT-15, above 100 µM; with SF-268, > 100 µM (inactive).

For the compound `OC[C@H]1CC(c2nn[nH]n2)[C@H](O)[C@@H]1O` (some centres undefined), the GI50 in the assay on Hs-578T, in the assay with MOLT-4, with PC-3, with SR, in the assay with SF-539 and with IGROV-1 was > 100 µM (inactive) throughout. Besides, the GI50 in the assay on OVCAR-4, in the assay with Malme-3M, with ACHN, with HT-29, with HCT-116 and with SN12C was > 100 µM (inactive) throughout. For the same compound, the GI50 with NCI-H460 was > 100 µM (inactive); with MDA-MB-435, > 100 µM (inactive); in the assay with A498, > 100 µM (inactive); with NCI-H23, > 100 µM (inactive); in the assay with HCT-15 it was above 100 µM; with SF-268 it was > 100 µM (inactive).

Consider `N#CCCN(CCC#N)c1ccc(C(=N/c2ccc(F)cc2)/N=N/c2ccc(Cl)cc2)cc1`, for which the GI50 in the assay with Hs-578T, in the assay on MOLT-4, in the assay on PC-3, in the assay with SR, in the assay with SF-539 and in the assay with IGROV-1 was > 100 µM (inactive) throughout. The GI50 with OVCAR-4, in the assay with ACHN, with EKVX, in the assay with HT-29, with HCT-116 and in the assay on SN12C was > 100 µM (inactive) in each case. Besides, the GI50 is > 100 µM (inactive) with NCI-H460; > 100 µM (inactive) in the assay with MDA-MB-435; > 100 µM (inactive) in the assay on A498; > 100 µM (inactive) in the assay with NCI-H23; above 100 µM with HCT-15; > 100 µM (inactive) with SF-268.

With `COc1ccc(-n2cnc3c(NC(CCSC)C(=O)O)ncnc32)cc1` (centres undefined), the GI50 in the assay on Hs-578T, in the assay on MOLT-4, in the assay with PC-3, in the assay on SR, with IGROV-1 and with OVCAR-4 was > 100 µM (inactive) throughout. The GI50 with ACHN, in the assay on EKVX, in the assay on SK-MEL-2, in the assay on HT-29, in the assay on HCT-116 and in the assay on SN12C was > 100 µM (inactive) throughout. For the same compound, the GI50 is > 100 µM (inactive) with NCI-H460; > 100 µM (inactive) in the assay with MDA-MB-435; > 100 µM (inactive) in the assay on A498; > 100 µM (inactive) in the assay with NCI-H23; above 100 µM in the assay with HCT-15; > 100 µM (inactive) with SF-268.

Regarding `COC(=O)[C@](NC(=O)OCc1ccccc1)([C@@H](C)[S+]([O-])c1ccc(C)cc1)C(F)(F)F` (some centres undefined), the GI50 was 58.9 µM (inactive) in the assay with Hs-578T; 18.7 µM (inactive) with MOLT-4; 27.9 µM (inactive) in the assay on PC-3; 22.9 µM (inactive) with SR; 24.6 µM (inactive) in the assay with IGROV-1; 20.8 µM (inactive) in the assay on OVCAR-4. Also, the GI50 in the assay on Malme-3M was 33 µM (inactive); in the assay with ACHN, 39.6 µM (inactive); in the assay with EKVX it was 29.2 µM (inactive); in the assay with SK-MEL-2, 19.5 µM (inactive); in the assay with HT-29 it was 24.8 µM (inactive); with HCT-116 it was 42.1 µM (inactive). In addition, the GI50 is 29 µM (inactive) in the assay with NCI-H460; 33.7 µM (inactive) in the assay with MDA-MB-435; 31.4 µM (inactive) with A498; 32.1 µM (inactive) in the assay on NCI-H23; 34.7 µM in the assay on HCT-15; 41.1 µM (inactive) in the assay on SF-268.

Take `CC(=O)Oc1ccc2c(c1)CC[C@@H]1C2CC[C@]2(C)C(=O)NC(=O)CC12` (some centres undefined): the GI50 in the assay on Hs-578T is > 100 µM (inactive); with MOLT-4, > 100 µM (inactive); in the assay with PC-3, > 100 µM (inactive); in the assay with SR, 91.4 µM (inactive); with SF-539 it was > 100 µM (inactive); in the assay with IGROV-1, > 100 µM (inactive). Also, the GI50 with OVCAR-4 was > 100 µM (inactive); in the assay on Malme-3M, > 100 µM (inactive); with ACHN, > 100 µM (inactive); in the assay with EKVX it was 23.9 µM (inactive); with HT-29, > 100 µM (inactive); in the assay with HCT-116 it was > 100 µM (inactive). Further, the GI50 with SN12C, in the assay on NCI-H460, with MDA-MB-435, in the assay on A498, in the assay on NCI-H23 and in the assay with SF-268 was > 100 µM (inactive) in each case.
